Assay results as given in patent US20060293307A1, “Oxazolidinone derivatives as antimicrobials” (priority 2002, published 2006).
Values after ≈ are worked out from the molar mass of the structure shown.

tested on: 139; test: MIC, agar incorporation method; type: cell-based
Method in brief: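 Doubling dilutions of compound in DMSO were incorporated into Mueller-Hinton agar; 10^4 CFU/spot inoculated from 0.5 McFarland suspensions and incubated 18 h (24 h for MRSN studies). MIC = lowest concentration without visible growth; valid only when ATCC reference strains gave in-range MICs.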

**Q.** With `CC(=O)NC[C@H]1CN(c2ccc(N3CCN(c4ccc([N+](=O)[O-])s4)CC3)c(F)c2)C(=O)O1` [Compound No. 1, (S)—N-[[3-[3-Fluoro-4-[4-(5-nitro-2-thienyl)-1-piperazinyl]phenyl]-2-oxo-5-oxazolidinyl]methyl]acetamide] as the compound, how does the MIC read?
**A.** Its MIC is 0.25 µg/mL (≈ 0.539 µM).

**Q.** With `CC(=O)NC[C@H]1CN(c2ccc(N3CCN(c4ccc(C=O)o4)CC3)c(F)c2)C(=O)O1` [Compound No. 3, (S)—N-[[3-[3-Fluoro-4-[4-(5-formyl-2-furyl)-1-piperazinyl]phenyl]-2-oxo-5-oxazolidinyl]methyl]acetamide] as the compound, how does the MIC read?
**A.** Its MIC is 0.5 µg/mL (≈ 1.16 µM).

**Q.** Which MIC does the source give for `CC(=O)NC[C@H]1CN(c2ccc(N3CCOCC3)c(F)c2)C(=O)O1` [Linezolid, reference compound] here?
**A.** The MIC was 1 µg/mL (≈ 2.96 µM).

**Q.** For `CN[C@H](CC(C)C)C(=O)N[C@H]1C(=O)N[C@@H](CC(N)=O)C(=O)N[C@H]2C(=O)N[C@H]3C(=O)N[C@H](C(=O)N[C@H](C(=O)O)c4cc(O)cc(O)c4-c4cc3ccc4O)[C@H](O)c3ccc(c(Cl)c3)Oc3cc2cc(c3O[C@@H]2O[C@H](CO)[C@@H](O)[C@H](O)[C@H]2O[C@H]2C[C@](C)(N)[C@H](O)[C@H](C)O2)Oc2ccc(cc2Cl)[C@H]1O` [Vancomycin, reference compound], which MIC is on record?
**A.** The MIC was greater than 16 µg/mL.
